The subject of experiment [1] is CCRF-CEM. The experiment can be described thus: Anticancer activity against human CCRF-CEM cells assessed as cell viability at 50 uM after 48 hrs by MTT assay. It is filed as functional. The note with it: read-out: Activity.
In experiment [2] the test system is CCRF-CEM. The experiment can be described thus: Anticancer activity against human CCRF-CEM cells assessed as cell viability at 25 uM after 24 hrs by MTT assay. It is filed as functional. The note with it: read-out: Activity.
The test system of experiment [3] is CCRF-CEM. The experiment can be described thus: Anticancer activity against human CCRF-CEM cells assessed as cell viability at 12.5 uM after 48 hrs by MTT assay. The note with it: read-out: Activity. It is filed as functional.
Experiment [4] relates to MCF7. Kind of experiment: Anticancer activity against human MCF7 cells assessed as cell viability at 50 uM after 48 hrs by MTT assay. It is filed as functional. To be noted: MCF7, 48 h, read-out: Activity.
The test system of experiment [5] is MCF7. The experiment can be described thus: Anticancer activity against human MCF7 cells assessed as cell viability at 100 uM after 24 hrs by MTT assay. The note with it: MCF7, 24 h, read-out: Activity. It is filed as functional.
The target of experiment [6] is Casein kinase II subunit alpha (Homo sapiens) (UniProt P68400). Kind of experiment: Inhibition of human CK2alpha using RRRDDDSDDD peptide substrate at 200 uM by P81 filter-binding assay. Set-up: scale not given: the % may be the effect or the level left.
Chain of Casein kinase II subunit alpha (Homo sapiens) (P68400 whole entry, looked up): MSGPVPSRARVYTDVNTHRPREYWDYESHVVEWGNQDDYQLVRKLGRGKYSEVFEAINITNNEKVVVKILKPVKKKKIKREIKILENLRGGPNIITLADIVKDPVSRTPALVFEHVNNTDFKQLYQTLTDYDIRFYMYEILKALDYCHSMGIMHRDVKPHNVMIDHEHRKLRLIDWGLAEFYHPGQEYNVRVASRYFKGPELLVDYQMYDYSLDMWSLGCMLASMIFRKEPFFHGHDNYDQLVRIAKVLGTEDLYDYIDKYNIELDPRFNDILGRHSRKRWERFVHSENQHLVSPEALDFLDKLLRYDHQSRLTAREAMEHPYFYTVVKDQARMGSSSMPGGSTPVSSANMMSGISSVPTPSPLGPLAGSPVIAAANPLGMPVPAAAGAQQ
For experiment [7] the target is unchanged. Kind of experiment: Inhibition of human CK2alpha using RRRDDDSDDD peptide substrate at 20 uM by P81 filter-binding assay. Set-up: scale not given: the % may be the effect or the level left.
Experiment [8] has as its system CCRF-CEM. The experiment can be described thus: Anticancer activity against human CCRF-CEM cells assessed as cell viability at 25 uM after 48 hrs by MTT assay. It is filed as functional. The note with it: read-out: Activity.
In experiment [9] the test system is MCF7. The experiment can be described thus: Anticancer activity against human MCF7 cells assessed as cell viability at 12.5 uM after 24 hrs by MTT assay. It is filed as functional. To be noted: MCF7, 24 h, read-out: Activity.
In experiment [10] the test system is MCF7. The experiment can be described thus: Anticancer activity against human MCF7 cells assessed as cell viability at 50 uM after 24 hrs by MTT assay. It is filed as functional. To be noted: MCF7, 24 h, read-out: Activity.
The test system of experiment [11] is MCF7. The experiment can be described thus: Anticancer activity against human MCF7 cells assessed as cell viability at 12.5 uM after 48 hrs by MTT assay. It is filed as functional. To be noted: MCF7, 48 h, read-out: Activity.
The test system of experiment [12] is CCRF-CEM. The experiment can be described thus: Anticancer activity against human CCRF-CEM cells assessed as cell viability at 100 uM after 48 hrs by MTT assay. It is filed as functional. The note with it: read-out: Activity.
Experiment [13] deals with CCRF-CEM. The experiment can be described thus: Anticancer activity against human CCRF-CEM cells assessed as cell viability at 100 uM after 24 hrs by MTT assay. The note with it: read-out: Activity. It is filed as functional.
In experiment [14] the test system is CCRF-CEM. Kind of experiment: Anticancer activity against human CCRF-CEM cells assessed as cell viability at 50 uM after 24 hrs by MTT assay. It is filed as functional. To be noted: read-out: Activity.
For experiment [15], the system named is MCF7. Kind of experiment: Anticancer activity against human MCF7 cells assessed as cell viability at 25 uM after 24 hrs by MTT assay. It is filed as functional. The note with it: MCF7, 24 h, read-out: Activity.
The subject of experiment [16] is MCF7. Kind of experiment: Anticancer activity against human MCF7 cells assessed as cell viability at 100 uM after 48 hrs by MTT assay. It is filed as functional. To be noted: MCF7, 48 h, read-out: Activity.
Experiment [17] concerns MCF7. The experiment can be described thus: Anticancer activity against human MCF7 cells assessed as cell viability at 25 uM after 48 hrs by MTT assay. It is filed as functional. The note with it: MCF7, 48 h, read-out: Activity.
For experiment [18], the system named is CCRF-CEM. Kind of experiment: Anticancer activity against human CCRF-CEM cells assessed as cell viability at 12.5 uM after 24 hrs by MTT assay. To be noted: read-out: Activity. It is filed as functional.

For the molecule `COc1cccc(C(O)CCn2nc3c(Br)c(Br)c(Br)c(Br)c3n2)c1` (centres undefined), the viability at 50 µM with CCRF-CEM [1] stood at 2%; in the experiment on MCF7 [4], 20%; in the experiment on MCF7 [10], 22%; in the experiment with CCRF-CEM [14] it was 58%. The viability at 25 µM is 106% with CCRF-CEM [2], 50% in the experiment with CCRF-CEM [8], 71% in the experiment with MCF7 [15] and 96% with MCF7 [17]. In addition, the viability at 12.5 µM with CCRF-CEM [3] worked out at 96%; in the experiment on MCF7 [9] it was 121%; with MCF7 [11], 97%; with CCRF-CEM [18], 110%. In addition, the viability at 100 µM worked out at 16% in the experiment with MCF7 [5], 2% in the experiment on CCRF-CEM [12], 48% in the experiment on CCRF-CEM [13] and 6% in the experiment with MCF7 [16]. Further, the Activity in experiment [6] is 87.5%; in experiment [7], 95.1%.
For the molecule `OC(CCn1nc2c(Br)c(Br)c(Br)c(Br)c2n1)c1ccccc1` (racemic), the viability at 50 µM is 0% in the experiment with CCRF-CEM [1], 23% in the experiment on MCF7 [4], 28% in the experiment with MCF7 [10] and 66% in the experiment on CCRF-CEM [14]. The viability at 25 µM with CCRF-CEM [2] turned out to be 123%; with CCRF-CEM [8], 84%; in the experiment on MCF7 [15] it was 99%; in the experiment on MCF7 [17] it was 105%. In addition, the viability at 12.5 µM in the experiment on CCRF-CEM [3] was determined as 89%; with MCF7 [9] it was 115%; in the experiment on MCF7 [11], 113%; with CCRF-CEM [18], 122%. In addition, the viability at 100 µM was 13% with MCF7 [5], 0% with CCRF-CEM [12], 21% in the experiment with CCRF-CEM [13] and 0% with MCF7 [16]. Moreover, the Activity in experiment [6] is 31.1%; in experiment [7], 93%.
Regarding `OC(CCn1nc2c(Br)c(Br)c(Br)c(Br)c2n1)c1ccc(F)cc1` (centres undefined), the viability at 50 µM with CCRF-CEM [1] worked out at 0%; in the experiment on MCF7 [4], 7%; with MCF7 [10] it was 16%; in the experiment with CCRF-CEM [14] it was 46%. Further, the viability at 25 µM in the experiment on CCRF-CEM [2] stood at 104%; in the experiment on CCRF-CEM [8] it was 88%; in the experiment with MCF7 [15], 101%; in the experiment with MCF7 [17] it was 97%. The viability at 12.5 µM was found to be 101% in the experiment with CCRF-CEM [3], 116% in the experiment with MCF7 [9], 109% in the experiment on MCF7 [11] and 110% in the experiment on CCRF-CEM [18]. For the same molecule, the viability at 100 µM with MCF7 [5], in the experiment on CCRF-CEM [12], in the experiment with CCRF-CEM [13] and in the experiment with MCF7 [16] was 0% throughout. Further, the Activity in experiment [6] is 35.4%; in experiment [7] it was 91.4%.

These data come from ChEMBL document CHEMBL3351930, “Synthesis of novel chiral TBBt derivatives with hydroxyl moiety. Studies on inhibition of human protein kinase CK2α and cytotoxicity properties” (Eur J Med Chem, 2014).
